The values that follow come from US20180008535A1, “Drug-Device Unit Containing Quinagolide” (Ferring B.V., priority 2014, published 2018).

Data set [1] in a line: Plasma concentration of quinagolide and active metabolites in sheep with intravaginal rings. Type of data set: in vivo. To be noted: first and second sheep trials. From the text: During the first and second sheep trials, the plasma concentration of quinagolide (Q) was monitored over the 28 day period. The plasma concentrations of active metabolites (M1 and M2: see FIG. 13) were also monitored in the sheep. The results are illustrated in FIG. 10 (see Tables 14 and 17 for quinagolide dose).

Data set [2] in a line: PK variables for quinagolide administered by an intravaginal ring in clinical study 000155. Type of data set: in vivo, healthy women. Particulars: for Tmax: median. The procedure:
Following intravaginal administration the plasma concentration of quinagolide increased to reach a maximum at approximately 37-39 hours with a subsequent slow decline until the ring was removed (see FIG. 15). The mean time for reaching a maximum serum concentration was similar between all three dose groups but with substantial inter-individual variation. Cmax increased with increasing dose while the mean terminal half-life estimations were appropriately the same in all three doses (Table 21: above).

The nature of data set [3]: In vivo release profile of vaginal rings in clinical study 000155. Also on record: species or system healthy women.
[4] abbreviates: vaginal ring dose load 400 μg, target release 5 μg/day.
[5] abbreviates: vaginal ring dose load 800 μg, target release 10 μg/day.
[6] abbreviates: vaginal ring dose load 1200 μg, target release 15 μg/day.

Consider `CCCN1CC(NS(=O)(=O)NCC)CC2Cc3c(O)cccc3CC21` (centres unmarked) [Batch M1], for which, in data set [1], the “molar plasma concentration, fold lower than the quinagolide” value was “approximately 10 fold”.

Turning to `CCCN1CC(NS(N)(=O)=O)CC2Cc3c(O)cccc3CC21` (centres unmarked) [Batch M2], the “molar plasma concentration, fold lower than the quinagolide” value in data set [1] is listed as “approximately 10 fold”.

As for `CCCN1C[C@@H](NS(=O)(=O)N(CC)CC)C[C@@H]2Cc3c(O)cccc3C[C@H]21` [quinagolide, N,N-diethyl-N′-[(3S,4aS, 10aR)-6-hydroxy-1-propyl-1,2,3,4,4a,5,10,10a-octahydrobenzo[g]quinolin-3-yl]sulfamide], the “AUC Day 0-28 (Hpg/mL)” value is 738 (236) Hpg/mL in data set [2] (400 μg intravaginal ring, Mean (SD)); 1497 (379) Hpg/mL in data set [2] (800 μg intravaginal ring, Mean (SD)); 3297 (1040) Hpg/mL in data set [2] (1200 μg intravaginal ring, Mean (SD)). Also, the highest concentration (Cmax) was found to be 3.4 pg/mL in data set [2] (female, human, plasma, 400 ug, 400 μg intravaginal ring, Mean (SD)); 5.3 pg/mL in data set [2] (female, human, plasma, 800 ug, 800 μg intravaginal ring, Mean (SD)); 10.9 pg/mL in data set [2] (female, human, plasma, 1200 ug, 1200 μg intravaginal ring, Mean (SD)). Further, the Tmax was 48 h in data set [2] (female, human, plasma, 400 ug, 400 μg intravaginal ring); 48 h in data set [2] (female, human, plasma, 800 ug, 800 μg intravaginal ring); 36 h in data set [2] (female, human, plasma, 1200 ug, 1200 μg intravaginal ring). In data set [2] (female, human, plasma, other: intravaginal ring, 400 ug, printed in the 400 μg line only, Mean (SD), read-out: T½ (converted)), the half-life is 14 h. Further, the “time at which plasma concentration of quinagolide reached a maximum” value in data set [2] (intravaginal administration, all three dose groups) lay within 37 to 39 h. The quinagolide concentration in the plasma at any point during the study in data set [1] was not above 50 pg/mL. Further, the “Average release 35 Days” value in data set [3] (setting [4]) is 9.4 µg/day; in data set [3] (setting [5]), 16.8 µg/day; in data set [3] (setting [6]) it was 21.3 µg/day. Besides, the “Average release 7 days” value in data set [3] (setting [4]) was 10.4 µg/day; in data set [3] (setting [5]), 24.1 µg/day; in data set [3] (setting [6]), 43.4 µg/day. Moreover, the “Average release 28 days” value in data set [3] (setting [4]) is 8.8 µg/day; in data set [3] (setting [5]) it was 12.6 µg/day; in data set [3] (setting [6]) it was 29.7 µg/day.
